Test results taken from the supplement of paper PMC13380429.

Legend:
Conditions in all cases: 72 h
[1] = tested on: HepG2; assay: relative viability EC50 (midpoint between 100% and the lowest measured viability); higher = less toxic
[2] = tested on: Caco-2; assay: as above
[3] = tested on: U2OS; assay: as above
[4] = tested on: Vero E6; assay: as above
[5] = tested on: Calu-3; assay: as above
[6] = tested on: HepG2; assay: drug sensitivity score (DSS) for viability; higher = more toxic; extreme values may be limits of the assay
[7] = tested on: Caco-2; assay: as above
[8] = tested on: U2OS; assay: as above
[9] = tested on: Vero E6; assay: as above
[10] = tested on: Calu-3; assay: as above
[11] = tested on: HepG2; assay: cell viability relative to DMSO; higher = less toxic
[12] = tested on: Caco-2; assay: as above
[13] = tested on: U2OS; assay: as above
[14] = tested on: Vero E6; assay: as above
[15] = tested on: Calu-3; assay: as above

With `CCC[C@H](N[C@@H](C)C(=O)N1[C@H](C(=O)O)C[C@@H]2CCCC[C@@H]21)C(=O)O` [perindoprilat] the “relative viability EC50” value [1] was over 10 µM, the “relative viability EC50” value [2] was over 10 µM and the “relative viability EC50” value [3] was over 10 µM. For the same compound, the “relative viability EC50” value [4] was over 10 µM, the “relative viability EC50” value [5] was over 10 µM and the drug sensitivity score [6] was 0. The drug sensitivity score [7] was 0, the drug sensitivity score [8] was 0 and the drug sensitivity score [9] was 0. It also gave a drug sensitivity score [10] of 0, a cell viability ([11]; 1 nM) of 104% and a cell viability ([11]; 10 nM) of 96.3%. The cell viability ([11]; 100 nM) was 103%, the cell viability ([11]; 1000 nM) was 105% and the cell viability ([11]; 10000 nM) was 96.5%. The cell viability ([12]; 1 nM) was 103%, the cell viability ([12]; 10 nM) was 93.9% and the cell viability ([12]; 100 nM) was 107%. It also gave a cell viability ([12]; 1000 nM) of 96.8%, a cell viability ([12]; 10000 nM) of 138% and a cell viability ([13]; 1 nM) of 95.2%. It also gave a cell viability ([13]; 10 nM) of 98.5%, a cell viability ([13]; 100 nM) of 94.6% and a cell viability ([13]; 1000 nM) of 105%. For the same compound, the cell viability ([13]; 10000 nM) was 92.2%, the cell viability ([14]; 1 nM) was 104% and the cell viability ([14]; 10 nM) was 104%. For the same compound, the cell viability ([14]; 100 nM) was 100%, the cell viability ([14]; 1000 nM) was 95.3% and the cell viability ([14]; 10000 nM) was 97.8%. It also gave a cell viability ([15]; 1 nM) of 100%, a cell viability ([15]; 10 nM) of 96.1% and a cell viability ([15]; 100 nM) of 90.6%. It also gave a cell viability ([15]; 1000 nM) of 103% and a cell viability ([15]; 10000 nM) of 93.2%.

With `Oc1cccc(Nc2ccc(Nc3cccc(O)c3)nn2)c1` [beta-amyloid-synthesis-inhibitor] the “relative viability EC50” value [1] was over 10 µM, the “relative viability EC50” value [2] was over 10 µM and the “relative viability EC50” value [3] was over 10 µM. For the same compound, the “relative viability EC50” value [4] was over 10 µM, the “relative viability EC50” value [5] was over 10 µM and the drug sensitivity score [6] was 0. The drug sensitivity score [7] was 0, the drug sensitivity score [8] was 0 and the drug sensitivity score [9] was 0. The drug sensitivity score [10] was 0, the cell viability ([11]; 1 nM) was 102% and the cell viability ([11]; 10 nM) was 101%. It also gave a cell viability ([11]; 100 nM) of 97.9%, a cell viability ([11]; 1000 nM) of 98.6% and a cell viability ([11]; 10000 nM) of 104%. It also gave a cell viability ([12]; 1 nM) of 101%, a cell viability ([12]; 10 nM) of 90.4% and a cell viability ([12]; 100 nM) of 109%. The cell viability ([12]; 1000 nM) was 101%, the cell viability ([12]; 10000 nM) was 94.4% and the cell viability ([13]; 1 nM) was 106%. For the same compound, the cell viability ([13]; 10 nM) was 97.1%, the cell viability ([13]; 100 nM) was 100% and the cell viability ([13]; 1000 nM) was 100%. It also gave a cell viability ([13]; 10000 nM) of 106%, a cell viability ([14]; 1 nM) of 92.4% and a cell viability ([14]; 10 nM) of 97.3%. The cell viability ([14]; 100 nM) was 93.8%, the cell viability ([14]; 1000 nM) was 98% and the cell viability ([14]; 10000 nM) was 95.5%. For the same compound, the cell viability ([15]; 1 nM) was 115%, the cell viability ([15]; 10 nM) was 94.9% and the cell viability ([15]; 100 nM) was 98.1%. For the same compound, the cell viability ([15]; 1000 nM) was 106% and the cell viability ([15]; 10000 nM) was 102%.

With `O=C(O)CCC(=O)O` [succinic-acid] the “relative viability EC50” value [1] was over 10 µM, the “relative viability EC50” value [2] was over 10 µM and the “relative viability EC50” value [3] was over 10 µM. For the same compound, the “relative viability EC50” value [4] was over 10 µM, the “relative viability EC50” value [5] was over 10 µM and the drug sensitivity score [6] was 0. The drug sensitivity score [7] was 0, the drug sensitivity score [8] was 0 and the drug sensitivity score [9] was 0. The drug sensitivity score [10] was 0, the cell viability ([11]; 1 nM) was 110% and the cell viability ([11]; 10 nM) was 100%. It also gave a cell viability ([11]; 100 nM) of 110%, a cell viability ([11]; 1000 nM) of 101% and a cell viability ([11]; 10000 nM) of 99.8%. It also gave a cell viability ([12]; 1 nM) of 92.2%, a cell viability ([12]; 10 nM) of 89.7% and a cell viability ([12]; 100 nM) of 86%. It also gave a cell viability ([12]; 1000 nM) of 94.8%, a cell viability ([12]; 10000 nM) of 93.5% and a cell viability ([13]; 1 nM) of 95.5%. The cell viability ([13]; 10 nM) was 102%, the cell viability ([13]; 100 nM) was 97.7% and the cell viability ([13]; 1000 nM) was 102%. For the same compound, the cell viability ([13]; 10000 nM) was 101%, the cell viability ([14]; 1 nM) was 104% and the cell viability ([14]; 10 nM) was 96.6%. The cell viability ([14]; 100 nM) was 95.5%, the cell viability ([14]; 1000 nM) was 98.4% and the cell viability ([14]; 10000 nM) was 104%. The cell viability ([15]; 1 nM) was 97.2%, the cell viability ([15]; 10 nM) was 105% and the cell viability ([15]; 100 nM) was 98.5%. It also gave a cell viability ([15]; 1000 nM) of 101% and a cell viability ([15]; 10000 nM) of 97.5%.

For `Nc1nc2c(ccc3ccccc32)s1` [SKA-31], the “relative viability EC50” value [1] was over 10 µM, the “relative viability EC50” value [2] was over 10 µM and the “relative viability EC50” value [3] was over 10 µM. The “relative viability EC50” value [4] was over 10 µM, the “relative viability EC50” value [5] was over 10 µM and the drug sensitivity score [6] was 0. It also gave a drug sensitivity score [7] of 0, a drug sensitivity score [8] of 0 and a drug sensitivity score [9] of 0. It also gave a drug sensitivity score [10] of 0, a cell viability ([11]; 1 nM) of 118% and a cell viability ([11]; 10 nM) of 109%. The cell viability ([11]; 100 nM) was 114%, the cell viability ([11]; 1000 nM) was 110% and the cell viability ([11]; 10000 nM) was 99.1%. It also gave a cell viability ([12]; 1 nM) of 99.6%, a cell viability ([12]; 10 nM) of 104% and a cell viability ([12]; 100 nM) of 97.5%. The cell viability ([12]; 1000 nM) was 106%, the cell viability ([12]; 10000 nM) was 93.9% and the cell viability ([13]; 1 nM) was 100%. For the same compound, the cell viability ([13]; 10 nM) was 103%, the cell viability ([13]; 100 nM) was 101% and the cell viability ([13]; 1000 nM) was 102%. For the same compound, the cell viability ([13]; 10000 nM) was 98.9%, the cell viability ([14]; 1 nM) was 102% and the cell viability ([14]; 10 nM) was 100%. The cell viability ([14]; 100 nM) was 103%, the cell viability ([14]; 1000 nM) was 100% and the cell viability ([14]; 10000 nM) was 97.8%. For the same compound, the cell viability ([15]; 1 nM) was 98.3%, the cell viability ([15]; 10 nM) was 103% and the cell viability ([15]; 100 nM) was 101%. It also gave a cell viability ([15]; 1000 nM) of 103% and a cell viability ([15]; 10000 nM) of 96.7%.
